# Reference: PubChem BioAssay (NCI)
# Values joined by “and” are separate entries in the source; they are usually repeats but may differ in a detail not shown here. Identical values can stand only once.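 These data come from cells grown in 96-well plates and exposed to compound for 48 hours at five concentrations. GI50 marks 50% less growth. TGI denotes the concentration required for complete inhibition of growth.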
# How the values were obtained:
# Assay in all cases: growth of human tumour cells (NCI), 48 h
# OVCAR-3 ovarian = tested on: OVCAR-3 ovarian
# SW-620 colon = tested on: SW-620 colon
# SF-539 CNS = tested on: SF-539 CNS
# SNB-75 CNS = tested on: SNB-75 CNS
# PC-3 prostate = tested on: PC-3 prostate
# A549 NSCLC = tested on: A549 NSCLC
# MCF7 breast = tested on: MCF7 breast
# M19-MEL melanoma = tested on: M19-MEL melanoma
# HS 578T breast = tested on: HS 578T breast
# MDA-N = tested on: MDA-N
# BT-549 breast = tested on: BT-549 breast
# T-47D breast = tested on: T-47D breast
# SK-MEL-2 melanoma = tested on: SK-MEL-2 melanoma
# HOP-18 NSCLC = tested on: HOP-18 NSCLC
# COLO 205 colon = tested on: COLO 205 colon
# KM20L2 colon = tested on: KM20L2 colon
# HOP-62 NSCLC = tested on: HOP-62 NSCLC
# SF-295 CNS = tested on: SF-295 CNS
# K-562 leukemia = tested on: K-562 leukemia
# HCT-116 colon = tested on: HCT-116 colon
# MOLT-4 leukemia = tested on: MOLT-4 leukemia
# HT29 colon = tested on: HT29 colon
# U251 CNS = tested on: U251 CNS
# MALME-3M melanoma = tested on: MALME-3M melanoma
# TK-10 renal = tested on: TK-10 renal
# OVCAR-4 ovarian = tested on: OVCAR-4 ovarian
# RXF 393 renal = tested on: RXF 393 renal
# NCI-H23 lung = tested on: NCI-H23 lung
# HCC-2998 colon = tested on: HCC-2998 colon
# HOP-92 NSCLC = tested on: HOP-92 NSCLC
# IGROV1 ovarian = tested on: IGROV1 ovarian
# SK-MEL-5 melanoma = tested on: SK-MEL-5 melanoma
# A498 renal = tested on: A498 renal
# LXFL 529 NSCLC = tested on: LXFL 529 NSCLC
# DLD-1 colon = tested on: DLD-1 colon
# NCI-H226 lung = tested on: NCI-H226 lung
# LOX IMVI melanoma = tested on: LOX IMVI melanoma
# SK-OV-3 ovarian = tested on: SK-OV-3 ovarian
# KM12 colon = tested on: KM12 colon
# CCRF-CEM leukemia = tested on: CCRF-CEM leukemia
# EKVX NSCLC = tested on: EKVX NSCLC
# MDA-MB-435 = tested on: MDA-MB-435
# NCI/ADR-RES ovarian = tested on: NCI/ADR-RES ovarian
# M14 melanoma = tested on: M14 melanoma
# UO-31 renal = tested on: UO-31 renal
# OVCAR-8 ovarian = tested on: OVCAR-8 ovarian
# NCI-H460 lung = tested on: NCI-H460 lung
# NCI-H522 lung = tested on: NCI-H522 lung
# HCT-15 colon = tested on: HCT-15 colon
# CAKI-1 renal = tested on: CAKI-1 renal
# SR leukemia = tested on: SR leukemia
# UACC-62 melanoma = tested on: UACC-62 melanoma
# ACHN renal = tested on: ACHN renal
# RXF-631 renal = tested on: RXF-631 renal
# UACC-257 melanoma = tested on: UACC-257 melanoma
# OVCAR-5 ovarian = tested on: OVCAR-5 ovarian
# SK-MEL-28 melanoma = tested on: SK-MEL-28 melanoma
# SNB-19 CNS = tested on: SNB-19 CNS
# SN12C renal = tested on: SN12C renal
# 786-0 renal = tested on: 786-0 renal
# MDA-MB-231 breast = tested on: MDA-MB-231 breast
# XF 498 CNS = tested on: XF 498 CNS
# RPMI-8226 leukemia = tested on: RPMI-8226 leukemia
# DU-145 prostate = tested on: DU-145 prostate
# SF-268 CNS = tested on: SF-268 CNS
# SNB-78 CNS = tested on: SNB-78 CNS
# DMS 114 small cell lung = tested on: DMS 114 small cell lung
# HL-60(TB) leukemia = tested on: HL-60(TB) leukemia
smiles,measurement,setting,value
NCCNc1ccc(NCCN)c2c1C(=O)c1c(O)ccc(O)c1C2=O,GI50,OVCAR-3 ovarian,385 nM
same,TGI,OVCAR-3 ovarian,2180 nM and 1660 nM
same,GI50,SW-620 colon,28.8 nM
same,TGI,SW-620 colon,1320 nM and 1120 nM
same,GI50,SF-539 CNS,< 11.2 nM
same,TGI,SF-539 CNS,932 nM and 261 nM
same,GI50,SNB-75 CNS,22.7 nM
same,TGI,SNB-75 CNS,206 nM and 429 nM
same,TGI,PC-3 prostate,1640 nM
same,TGI,A549 NSCLC,223 nM and 393 nM
same,TGI,MCF7 breast,4510 nM and 1270 nM
same,GI50,M19-MEL melanoma,104 nM
same,TGI,M19-MEL melanoma,1040 nM and 1170 nM
same,GI50,HS 578T breast,225 nM
same,TGI,HS 578T breast,851 nM and 902 nM
same,GI50,MDA-N,260 nM
same,TGI,MDA-N,2330 nM and 1430 nM
same,TGI,BT-549 breast,2180 nM
same,TGI,T-47D breast,2660 nM and 4380 nM
same,GI50,SK-MEL-2 melanoma,345 nM
same,TGI,SK-MEL-2 melanoma,1310 nM and 1330 nM
same,GI50,HOP-18 NSCLC,26.3 nM
same,TGI,HOP-18 NSCLC,3820 nM and 770 nM
same,GI50,COLO 205 colon,157 nM
same,TGI,COLO 205 colon,2360 nM and 1190 nM
same,GI50,KM20L2 colon,251 nM
same,TGI,KM20L2 colon,1500 nM and 1530 nM
same,GI50,HOP-62 NSCLC,18.9 nM
same,TGI,HOP-62 NSCLC,147 nM and 64.2 nM
same,GI50,SF-295 CNS,< 13.1 nM
same,TGI,SF-295 CNS,414 nM and 61.8 nM
same,TGI,K-562 leukemia,140 nM
same,GI50,HCT-116 colon,34.3 nM
same,TGI,HCT-116 colon,520 nM and 446 nM
same,TGI,MOLT-4 leukemia,216 nM
same,GI50,HT29 colon,92.2 nM
same,TGI,HT29 colon,1340 nM and 1230 nM
same,GI50,U251 CNS,23.8 nM
same,TGI,U251 CNS,845 nM and 137 nM
same,GI50,MALME-3M melanoma,112 nM
same,TGI,MALME-3M melanoma,1460 nM and 1340 nM
same,GI50,TK-10 renal,289 nM
same,TGI,TK-10 renal,3640 nM and 1400 nM
same,GI50,OVCAR-4 ovarian,62.5 nM
same,TGI,OVCAR-4 ovarian,1090 nM and 715 nM
same,GI50,RXF 393 renal,179 nM
same,TGI,RXF 393 renal,387 nM and 679 nM
same,GI50,NCI-H23 lung,< 14.4 nM
same,TGI,NCI-H23 lung,44.2 nM and 83.5 nM
same,GI50,HCC-2998 colon,147 nM
same,TGI,HCC-2998 colon,1240 nM
same,GI50,HOP-92 NSCLC,229 nM
same,TGI,HOP-92 NSCLC,78.9 nM
same,GI50,IGROV1 ovarian,182 nM
same,TGI,IGROV1 ovarian,1170 nM and 1500 nM
same,GI50,SK-MEL-5 melanoma,70.9 nM
same,TGI,SK-MEL-5 melanoma,1470 nM and 1110 nM
same,TGI,A498 renal,370 nM
same,GI50,LXFL 529 NSCLC,105 nM
same,TGI,LXFL 529 NSCLC,905 nM and 1030 nM
same,GI50,DLD-1 colon,69 nM
same,TGI,DLD-1 colon,1050 nM and 974 nM
same,GI50,NCI-H226 lung,10.2 nM
same,TGI,NCI-H226 lung,43.9 nM and 39.3 nM
same,GI50,LOX IMVI melanoma,31 nM
same,TGI,LOX IMVI melanoma,252 nM and 214 nM
same,GI50,SK-OV-3 ovarian,15.1 nM
same,GI50,KM12 colon,105 nM
same,TGI,KM12 colon,1240 nM and 731 nM
same,TGI,CCRF-CEM leukemia,3790 nM
same,GI50,EKVX NSCLC,112 nM
same,TGI,EKVX NSCLC,1300 nM and 435 nM
same,TGI,MDA-MB-435,2370 nM
same,GI50,NCI/ADR-RES ovarian,237 nM
same,TGI,NCI/ADR-RES ovarian,1390 nM and 2840 nM
same,GI50,M14 melanoma,32.4 nM
same,TGI,M14 melanoma,1270 nM and 1320 nM
same,GI50,UO-31 renal,57.9 nM
same,TGI,UO-31 renal,823 nM and 374 nM
same,GI50,OVCAR-8 ovarian,20 nM
same,TGI,OVCAR-8 ovarian,466 nM and 353 nM
same,TGI,NCI-H460 lung,159 nM and 178 nM
same,GI50,NCI-H522 lung,18 nM
same,TGI,NCI-H522 lung,467 nM and 150 nM
same,GI50,HCT-15 colon,30.3 nM
same,TGI,HCT-15 colon,391 nM and 1260 nM
same,TGI,CAKI-1 renal,879 nM and 123 nM
same,TGI,SR leukemia,17.1 nM
same,GI50,UACC-62 melanoma,22.8 nM
same,TGI,UACC-62 melanoma,890 nM and 313 nM
same,TGI,ACHN renal,117 nM and 59.6 nM
same,TGI,RXF-631 renal,1130 nM
same,TGI,UACC-257 melanoma,3110 nM and 4100 nM
same,GI50,OVCAR-5 ovarian,364 nM
same,TGI,OVCAR-5 ovarian,1500 nM and 3180 nM
same,TGI,SK-MEL-28 melanoma,2280 nM and 2150 nM
same,GI50,SNB-19 CNS,14.5 nM
same,TGI,SNB-19 CNS,1140 nM and 254 nM
same,TGI,SN12C renal,79.9 nM and 77.6 nM
same,TGI,786-0 renal,55.5 nM and 49.7 nM
same,GI50,MDA-MB-231 breast,146 nM
same,TGI,MDA-MB-231 breast,2140 nM and 621 nM
same,TGI,XF 498 CNS,298 nM
same,TGI,RPMI-8226 leukemia,692 nM
same,GI50,DU-145 prostate,30.1 nM
same,TGI,DU-145 prostate,398 nM and 2560 nM
same,GI50,SF-268 CNS,22.2 nM
same,TGI,SF-268 CNS,985 nM and 3240 nM
CC(Oc1ccc2c(=O)cc(-c3ccccc3)oc2c1)C(=O)O (stereo unspecified),TGI,OVCAR-3 ovarian,> 100000 nM
same,TGI,SW-620 colon,> 100000 nM
same,TGI,SF-539 CNS,> 100000 nM
same,TGI,SNB-75 CNS,> 100000 nM
same,TGI,A549 NSCLC,> 100000 nM
same,TGI,M19-MEL melanoma,> 100000 nM
same,TGI,HOP-18 NSCLC,> 100000 nM
same,TGI,COLO 205 colon,> 100000 nM
same,TGI,KM20L2 colon,> 100000 nM
same,TGI,HOP-62 NSCLC,> 100000 nM
same,TGI,SF-295 CNS,> 100000 nM
same,TGI,K-562 leukemia,> 100000 nM
same,TGI,HCT-116 colon,> 100000 nM
same,TGI,MOLT-4 leukemia,> 100000 nM
same,TGI,HT29 colon,> 100000 nM
same,TGI,U251 CNS,> 100000 nM
same,TGI,MALME-3M melanoma,> 100000 nM
same,TGI,TK-10 renal,> 100000 nM
same,TGI,OVCAR-4 ovarian,> 100000 nM
same,TGI,RXF 393 renal,> 100000 nM
same,TGI,SNB-78 CNS,> 100000 nM
same,TGI,NCI-H23 lung,> 100000 nM
same,TGI,HCC-2998 colon,> 100000 nM
same,TGI,HOP-92 NSCLC,> 100000 nM
same,TGI,IGROV1 ovarian,> 100000 nM
same,TGI,SK-MEL-5 melanoma,> 100000 nM
same,TGI,A498 renal,> 100000 nM
same,TGI,LXFL 529 NSCLC,> 100000 nM
same,TGI,DLD-1 colon,> 100000 nM
same,TGI,NCI-H226 lung,> 100000 nM
same,TGI,LOX IMVI melanoma,> 100000 nM
same,TGI,SK-OV-3 ovarian,> 100000 nM
same,TGI,KM12 colon,> 100000 nM
same,TGI,CCRF-CEM leukemia,> 100000 nM
same,TGI,EKVX NSCLC,> 100000 nM
same,TGI,M14 melanoma,> 100000 nM
same,TGI,UO-31 renal,> 100000 nM
same,TGI,OVCAR-8 ovarian,> 100000 nM
same,TGI,NCI-H460 lung,> 100000 nM
same,TGI,DMS 114 small cell lung,> 100000 nM
same,TGI,NCI-H522 lung,> 100000 nM
same,TGI,CAKI-1 renal,> 100000 nM
same,TGI,SR leukemia,> 100000 nM
same,TGI,UACC-62 melanoma,> 100000 nM
same,TGI,ACHN renal,> 100000 nM
same,TGI,UACC-257 melanoma,> 100000 nM
same,TGI,SK-MEL-28 melanoma,> 100000 nM
same,TGI,SNB-19 CNS,> 100000 nM
same,TGI,SN12C renal,> 100000 nM
same,TGI,HL-60(TB) leukemia,> 100000 nM
same,TGI,786-0 renal,> 100000 nM
same,TGI,XF 498 CNS,> 100000 nM
same,TGI,SF-268 CNS,> 100000 nM
